Experimental findings from US11071730B2, “Substituted 6-azabenzimidazole compounds” (Gilead Sciences, Inc., priority 2018, dated 2021) are described below.

Each structure is given as a SMILES string.

human HPK1 (MAP4K1), sequence (Q92918 17-274): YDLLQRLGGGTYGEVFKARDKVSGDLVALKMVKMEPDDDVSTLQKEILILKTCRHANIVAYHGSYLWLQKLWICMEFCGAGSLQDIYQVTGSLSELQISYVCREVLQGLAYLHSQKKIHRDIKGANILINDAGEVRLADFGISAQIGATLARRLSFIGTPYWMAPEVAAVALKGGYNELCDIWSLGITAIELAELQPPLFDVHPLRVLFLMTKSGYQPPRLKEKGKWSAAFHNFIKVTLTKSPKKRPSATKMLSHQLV

The first assay has as its target human HPK1 (MAP4K1) (Homo sapiens (Human), UniProt Q92918). The assay is described as follows: HPK1 IC50 Assay (TR-FRET biochemical kinase assay, STK S1 peptide substrate). The settings on record: recombinant human HPK1 kinase domain 0.15 nM, 10 μM ATP, 1 μM STK S1 peptide; geometric mean. An outline of the steps:
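Pre-activated recombinant kinase domain (insect cells; 0.15 nM) pre-incubated with compounds for 15 min, then 10 μM ATP and 1 μM STK S1 peptide added for 3 h at 25 °C in BES pH 7.0. Phosphorylation read by HTRF (665/620 nm). IC50 from four-parameter fits normalized to staurosporine/DMSO controls, geometric mean of repeats.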
For orientation: Time-resolved FRET reads energy transfer from a long-lived donor to a nearby acceptor.
For the compound `COC1(C(=O)N2CCC3(CC2)C(=O)N([C@H]2C[C@@H](N4CCCCC4)C2)c2cc(-c4cc5ncn(C(C)C)c5c(Nc5ccncc5F)n4)ccc23)CC1` [Example 146], the IC50 amounted to 300 pM.

In the case of `CC(C)n1cnc2cc(-c3ccc4c(c3)N([C@H]3C[C@@H](N5CCC(C)(C)C5)C3)C(=O)C4(C)C)nc(Nc3ccncc3F)c21` [Example 189], the half-inhibitory concentration (IC50) came out at 600 pM.

With `CC(=O)N1CCC2(CC1)C(=O)N([C@H]1C[C@@H](N3CC4CCC(C4)C3)C1)c1cc(-c3cc4ncn(C(C)C)c4c(Nc4ccncc4F)n3)ccc12` [Example 181], the half-maximal inhibitory concentration (IC50) was 100 pM.

Regarding `CC(C)n1cnc2cc(-c3ccc4c(c3)N([C@H]3C[C@@H](N5CCC(C)(C)C5)C3)C(=O)C43CCN(C(=O)c4cnco4)CC3)nc(Nc3ccncc3F)c21` [Example 158], the half-maximal inhibitory concentration (IC50) was found to be 400 pM.

In the case of `CC(C)n1cnc2cc(-c3ccc4c(c3)N([C@H]3C[C@@H](N5CCCCC5)C3)C(=O)C43CCN(C(=O)C4(F)CCC4)CC3)nc(Nc3ccncc3F)c21` [Example 149], the half-maximal inhibitory concentration (IC50) came out at 500 pM.

On to `CC(=O)N1CCC2(CC1)C(=O)N([C@H]1C[C@@H](N3C4CCCC3CC4)C1)c1cc(-c3cc4ncn(C(C)C)c4c(Nc4ccncc4F)n3)ccc12` [Example 186], for which the 50% inhibitory concentration (IC50) came out at 300 pM.

As to `CC(=O)N1CCC2(CC1)C(=O)N(C1CC(N3CCCC4(CC4)C3)C1)c1cc(-c3cc4ncn(C(C)C)c4c(Nc4ccncc4F)n3)ccc12` (centres unmarked) [Example 177, 1-((1s,3s)-3-(5-azaspiro[2.5]octan-5-yl)cyclobutyl)-1′-acetyl-6-(4-((3-fluoropyridin-4-yl)amino)-3-isopropyl-3H-imidazo[4,5-c]pyridin-6-yl)spiro[indoline-3,4′-piperidin]-2-one], the IC50 came to 300 pM.

As to `CC(C)n1cnc2cc(-c3ccc4c(c3)N([C@H]3C[C@@H](N5CCCCC5)C3)C(=O)C43CCN(C(=O)C4(F)CC4)CC3)nc(Nc3ccncc3F)c21` [Example 150], the IC50 is 500 pM.

For the compound `CC(C)n1cnc2cc(-c3ccc4c(c3)N([C@H]3C[C@@H](N5CCC[C@@H](C)C5)C3)C(=O)C4(C)C)nc(Nc3ccncc3F)c21` [Example 191], the half-maximal inhibitory concentration (IC50) is 900 pM.

Turning to `Cc1cc(Nc2nc(-c3ccc4c(c3)N([C@H]3C[C@@H](N5CCCCC5)C3)C(=O)C43CCN(C(=O)C4(C)COC4)CC3)cc3ncn(C(C)C)c23)c(F)cn1` [Example 129], the IC50 came out at 600 pM.

Regarding `CC(C)n1cnc2cc(-c3ccc4c(c3)N([C@H]3C[C@@H](N5CCC(C)(C)C5)C3)C(=O)C43CCN(C(=O)c4nccs4)CC3)nc(Nc3ccncc3F)c21` [Example 162], the IC50 worked out at 100 pM.

On to `CC(C)n1cnc2cc(-c3ccc4c(c3)N([C@H]3C[C@@H](N5CCCC6(CC6)C5)C3)C(=O)C43CCN(C(=O)CO)CC3)nc(Nc3ccncc3F)c21` [Example 121], for which the IC50 came to 200 pM.

`CC(C)n1cnc2cc(-c3ccc4c(c3)N([C@H]3C[C@@H](N5CCCCC5)C3)C(=O)C43CCN(C(=O)C4(C(C)C)COC4)CC3)nc(Nc3ccncc3F)c21` [Example 137]: the 50% inhibitory concentration (IC50) came out at 80 pM.

With `CC(=O)N1CCC2(CC1)C(=O)N([C@H]1C[C@@H](N3CCCC[C@@H]3C)C1)c1cc(-c3cc4ncn(C(C)C)c4c(Nc4ccncc4F)n3)ccc12` [Example 184], the IC50 was 700 pM.

For the compound `CC(=O)N1CCC2(CC1)C(=O)N([C@H]1C[C@@H](N3CCC4(CC4)C3)C1)c1cc(-c3cc4ncn(C(C)C)c4c(Nc4ccncc4F)n3)ccc12` [Example 178], the IC50 was 800 pM.

On to `CC(C)n1cnc2cc(-c3ccc4c(c3)N([C@H]3C[C@@H](N5CCCCC5)C3)C(=O)C43CCN(C(=O)[C@@H](C)O)CC3)nc(Nc3ccnc(F)c3F)c21` [Example 102], for which the IC50 was determined as 100 pM.

Consider `CC(C)n1cnc2cc(-c3ccc4c(c3)N([C@H]3C[C@@H](N5CCCCC5)C3)C(=O)C43CCN(C(=O)C4(C)COC4)CC3)nc(Nc3ccncc3F)c21` [Example 147], for which the IC50 was found to be 400 pM.

For the compound `CC(=O)N1CCC2(CC1)C(=O)N([C@H]1C[C@@H](N3CCCCC3)C1)c1cc(-c3cc4ncn(C(C)C)c4c(Nc4cc5ccncc5cc4F)n3)ccc12` [Example 105, 1′-acetyl-6-(4-((7-fluoroisoquinolin-6-yl)amino)-3-isopropyl-3H-imidazo[4,5-c]pyridin-6-yl)-1-((1s,3s)-3-(piperidin-1-yl)cyclobutyl)spiro[indoline-3,4′-piperidin]-2-one], the IC50 stood at 400 pM.

Consider `CC(C)n1cnc2cc(-c3ccc4c(c3)N([C@H]3C[C@@H](N5CCCCC5)C3)C(=O)C4(C)O)nc(Nc3ccnc(F)c3F)c21` (some centres unmarked) [Example 101], for which the IC50 came out at 300 pM.

On to `CC(=O)N1CCC2(CC1)C(=O)N([C@H]1C[C@@H](N3CCC(C)(C)C3)C1)c1cc(-c3cc4ncn(C(C)C)c4c(Nc4cc(C)ncc4F)n3)ccc12` [Example 173], for which the IC50 turned out to be 400 pM.

In the case of `Cc1cc(Nc2nc(-c3ccc4c(c3)N([C@H]3C[C@@H](N5CCCCC5)C3)C(=O)C43CCN(C(=O)C(C)(C)CO)CC3)cc3ncn(C(C)C)c23)c(F)cn1` [Example 132], the half-inhibitory concentration (IC50) stood at 800 pM.

Turning to `CC(C)n1cnc2cc(-c3ccc4c(c3)N([C@H]3C[C@@H](N5CCCC(C)(C)C5)C3)C(=O)C43CCN(C(=O)C4CCO4)CC3)nc(Nc3ccncc3F)c21` (some centres unmarked) [Example 108], the IC50 stood at 200 pM.

Consider `CC(=O)N1CCC2(CC1)C(=O)N([C@H]1C[C@@H](N3CC4CCC3CC4)C1)c1cc(-c3cc4ncn(C(C)C)c4c(Nc4ccncc4F)n3)ccc12` [Example 193], for which the IC50 is 300 pM.

Take `CC(=O)N1CCC2(CC1)C(=O)N([C@H]1C[C@@H](N3CCCCC3)C1)c1cc(-c3cc4ncn(C(C)C)c4c(Nc4cc(CO)ncc4F)n3)ccc12` [Example 98]: the half-inhibitory concentration (IC50) was found to be 1000 pM.

As for `CC(C)n1cnc2cc(-c3ccc4c(c3)N([C@H]3C[C@@H](N5CC6CCC(C6)C5)C3)C(=O)C43CCN(C(=O)C(C)(C)CO)CC3)nc(Nc3ccncc3F)c21` [Example 127], the IC50 came to 70 pM.

Still in this assay, the particulars now being: recombinant human HPK1 kinase domain 0.15 nM, 10 μM ATP, 1 μM STK S1 peptide; geometric mean of multiple experiments.
In the case of `CC(C)n1cnc2cc(-c3ccc4c(c3)N([C@H]3C[C@@H](N5CCCC(C)(C)C5)C3)C(=O)C4(C)C)nc(Nc3ccc(=O)[nH]c3)c21` [Example 82], the IC50 turned out to be 100 pM.

For the compound `CCn1cnc2cc(-c3ccc4c(c3)N([C@H]3C[C@@H](N5CC(C)(C)C5)C3)C(=O)C4(C)C)nc(Nc3ccncc3F)c21` [Example 85], the IC50 was found to be 2500 pM.

Regarding `COc1cc(F)c(Nc2nc(-c3ccc4c(c3)N([C@H]3C[C@@H](N5CCCCC5)C3)C(=O)C43CCN(C(C)=O)CC3)cc3ncn(C(C)C)c23)cn1` [Example 97], the IC50 was determined as 200 pM.

For the compound `CC(C)n1cnc2cc(-c3ccc4c(c3)N([C@H]3C[C@@H](N5C[C@@H](C)[C@@H](C)C5)C3)C(=O)C43CCN(C(=O)[C@@H]4CCCO4)CC3)nc(Nc3ccncc3F)c21` [Example 9], the IC50 worked out at 200 pM.

Take `CC(C)n1cnc2cc(-c3ccc4c(c3)N([C@H]3C[C@@H](N5CCC(C)(C)C5)C3)C(=O)C43CCN(C4COC4)CC3)nc(Nc3ccnc(F)c3F)c21` [Example 93]: the half-inhibitory concentration (IC50) turned out to be 200 pM.

As for `Cc1cc(Nc2nc(-c3ccc4c(c3)N([C@H]3C[C@@H](N5CCCCC5)C3)C(=O)C4(C)C)cc3ncn(C(C)C)c23)c(F)cn1` [Example 54], the IC50 was 1500 pM.

As for `CC(C)n1cnc2cc(-c3ccc4c(c3)N([C@H]3C[C@@H](N5CCC(C)(C)C5)C3)C(=O)C43CCN(C(=O)C4CCO4)CC3)nc(Nc3ccncc3F)c21` (mixture of isomers) [Example 78, 1-((1s,3s)-3-(3,3-dimethylpyrrolidin-1-yl)cyclobutyl)-6-(4-((3-fluoropyridin-4-yl)amino)-3-isopropyl-3H-imidazo[4,5-c]pyridin-6-yl)-1′-(oxetane-2-carbonyl)spiro[indoline-3,4′-piperidin]-2-one], the half-maximal inhibitory concentration (IC50) is 700 pM.

Consider `CC(C)n1cnc2cc(-c3ccc4c(c3)N([C@H]3C[C@@H](N5CC6CC(C6)C5)C3)C(=O)C43CCN(C(=O)C4(C)COC4)CC3)nc(Nc3ccncc3F)c21` [Example 7], for which the concentration for half-maximal inhibition (IC50) came out at 200 pM.

Consider `CC(C)n1cnc2cc(-c3ccc4c(c3)N([C@H]3C[C@@H](N5CCCCC5)C3)C(=O)[C@@]4(C)O)nc(Nc3ccncc3F)c21` [Example 55A, 6-(4-((3-fluoropyridin-4-yl)amino)-3-isopropyl-3H-imidazo[4,5-c]pyridin-6-yl)-3-hydroxy-3-methyl-1-((1s,3s)-3-(piperidin-1-yl)cyclobutyl)indolin-2-one], for which the concentration for half-maximal inhibition (IC50) is 1200 pM.

With `CC(C)n1cnc2cc(-c3ccc4c(c3)N([C@H]3C[C@@H](N5CCC(C)(C)C5)C3)C(=O)C43CCN(C(=O)C(C)(C)O)CC3)nc(Nc3ccncc3F)c21` [Example 4], the IC50 is 400 pM.

As to `CC(=O)N1CCC2(CC1)C(=O)N([C@H]1C[C@@H](N3CCCCC3)C1)c1cc(-c3cc4ncn(C(C)C)c4c(Nc4ccc(F)nc4F)n3)ccc12` [Example 70], the concentration for half-maximal inhibition (IC50) turned out to be 100 pM.

For the compound `CC(C)n1cnc2cc(-c3ccc4c(c3)N([C@H]3C[C@@H](N5C6CCC5COC6)C3)C(=O)C43CCN(C4COC4)CC3)nc(Nc3ccncc3F)c21` [Example 50], the IC50 came to 500 pM.

For `CC(C)n1cnc2cc(-c3ccc4c(c3)N([C@H]3C[C@@H](N5CC[C@@H](F)C5)C3)C(=O)C43CCN(C4COC4)CC3)nc(Nc3ccncc3F)c21` [Example 42], the half-inhibitory concentration (IC50) amounted to 600 pM.

As to `[2H]C1([2H])N([C@H]2C[C@@H](N3C(=O)C(C)(C)c4ccc(-c5cc6ncn(C(C)C)c6c(Nc6ccncc6F)n5)cc43)C2)C([2H])([2H])C([2H])([2H])C([2H])([2H])C1([2H])[2H]` [Example 63], the IC50 is 300 pM.

In the case of `CC(C)n1cnc2cc(-c3ccc4c(c3)N([C@H]3C[C@@H](N5CCC(C)(C)C5)C3)C(=O)C43CCN(C(=O)C4(C)COC4)CC3)nc(Nc3ccncc3F)c21` [Example 77], the 50% inhibitory concentration (IC50) turned out to be 400 pM.

For the compound `CC(C)n1cnc2cc(-c3ccc4c(c3)N([C@H]3C[C@@H](N5CCC(C)(C)C5)C3)C(=O)C43CCN(C(=O)C4CCCOC4)CC3)nc(Nc3ccncc3F)c21` (some centres unmarked) [Example 25], the IC50 worked out at 200 pM.

As usually defined, the IC50 is the concentration that gives 50% inhibition.
